Data on 13 molecules can be found in article PMC6727846 (Journal of medicinal chemistry, 2019).

A word on the IC50: it is the concentration that inhibits the measured activity by half. As a reminder, the EC50 is the midpoint of the concentration-response curve.

Data set [1] relates to Plasmodium falciparum 3D7 (CQ-sensitive). As to the kind of experiment: In vitro antimalarial SYBR Green I fluorescence assay. As to conditions: for effect of substitution on Pf 3D7 potency, in words: SAR statement in text. The data set is classed as cell-based.
For the next data set, the target named is Pf plasmepsin II (PM-II) (Plasmodium falciparum, UniProt Q8I6V3). As to the kind of experiment: biochemical.
Pf plasmepsin II (PM-II), sequence (Q8I6V3 125-453): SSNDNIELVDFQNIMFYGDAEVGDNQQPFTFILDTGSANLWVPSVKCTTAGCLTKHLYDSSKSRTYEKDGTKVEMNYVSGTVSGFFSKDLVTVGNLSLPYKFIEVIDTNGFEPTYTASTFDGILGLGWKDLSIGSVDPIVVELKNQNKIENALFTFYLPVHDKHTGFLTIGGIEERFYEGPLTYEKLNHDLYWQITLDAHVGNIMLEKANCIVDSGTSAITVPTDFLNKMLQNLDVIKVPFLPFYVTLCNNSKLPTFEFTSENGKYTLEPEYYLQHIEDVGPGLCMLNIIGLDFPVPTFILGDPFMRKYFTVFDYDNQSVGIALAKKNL
For another data set, the target named is Pf PM-V (Plasmodium falciparum, UniProt Q8I6Z5). The class given is cell-based. As to conditions: knockdown assay; data not shown.
Pf PM-V, sequence (Q8I6Z5 whole entry): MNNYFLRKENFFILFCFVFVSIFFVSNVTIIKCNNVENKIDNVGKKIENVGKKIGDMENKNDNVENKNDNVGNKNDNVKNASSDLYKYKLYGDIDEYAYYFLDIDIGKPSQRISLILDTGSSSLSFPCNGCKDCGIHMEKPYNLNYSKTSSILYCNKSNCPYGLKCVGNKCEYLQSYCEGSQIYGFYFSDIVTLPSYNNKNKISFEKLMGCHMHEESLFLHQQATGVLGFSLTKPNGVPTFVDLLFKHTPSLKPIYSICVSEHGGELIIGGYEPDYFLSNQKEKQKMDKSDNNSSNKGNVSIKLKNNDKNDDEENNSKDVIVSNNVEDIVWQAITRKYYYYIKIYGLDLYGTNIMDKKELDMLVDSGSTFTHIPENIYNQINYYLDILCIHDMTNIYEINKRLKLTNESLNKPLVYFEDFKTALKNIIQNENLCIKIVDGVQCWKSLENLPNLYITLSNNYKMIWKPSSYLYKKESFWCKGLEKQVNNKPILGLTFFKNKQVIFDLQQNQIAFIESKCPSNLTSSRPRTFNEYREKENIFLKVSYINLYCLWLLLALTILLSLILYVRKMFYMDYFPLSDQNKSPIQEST
Another data set deals with T1, PM-IX (Plasmodium falciparum, UniProt Q8ILG2).
T1 sequence (Q8ILG2 1-627): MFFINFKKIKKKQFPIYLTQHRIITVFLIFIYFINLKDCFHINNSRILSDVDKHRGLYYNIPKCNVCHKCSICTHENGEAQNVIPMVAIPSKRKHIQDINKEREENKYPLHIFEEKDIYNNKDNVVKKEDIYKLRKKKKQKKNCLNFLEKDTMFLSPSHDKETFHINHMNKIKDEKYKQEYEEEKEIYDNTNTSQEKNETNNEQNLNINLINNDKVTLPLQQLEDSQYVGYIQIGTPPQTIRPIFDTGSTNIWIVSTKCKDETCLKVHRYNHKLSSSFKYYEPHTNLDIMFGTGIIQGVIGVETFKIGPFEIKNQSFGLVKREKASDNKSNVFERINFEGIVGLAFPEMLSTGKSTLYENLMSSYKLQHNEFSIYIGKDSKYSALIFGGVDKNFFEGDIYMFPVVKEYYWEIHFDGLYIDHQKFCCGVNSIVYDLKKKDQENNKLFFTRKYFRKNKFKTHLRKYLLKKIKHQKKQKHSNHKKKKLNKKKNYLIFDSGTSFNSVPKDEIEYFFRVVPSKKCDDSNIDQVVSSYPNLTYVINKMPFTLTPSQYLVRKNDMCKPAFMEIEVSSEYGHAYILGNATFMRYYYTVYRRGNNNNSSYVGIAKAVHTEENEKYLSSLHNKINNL
The data set is classed as cell-based. As to conditions: western blot, substrate processing; data not shown. A general note: Immunoblotting shows a protein as a band on a membrane.

For a further data set, the target named is PM-X (Plasmodium falciparum, UniProt Q8IAS0). The data set is classed as cell-based. To be noted: western blot, substrate processing; data not shown.
PM-X, sequence (Q8IAS0 222-573): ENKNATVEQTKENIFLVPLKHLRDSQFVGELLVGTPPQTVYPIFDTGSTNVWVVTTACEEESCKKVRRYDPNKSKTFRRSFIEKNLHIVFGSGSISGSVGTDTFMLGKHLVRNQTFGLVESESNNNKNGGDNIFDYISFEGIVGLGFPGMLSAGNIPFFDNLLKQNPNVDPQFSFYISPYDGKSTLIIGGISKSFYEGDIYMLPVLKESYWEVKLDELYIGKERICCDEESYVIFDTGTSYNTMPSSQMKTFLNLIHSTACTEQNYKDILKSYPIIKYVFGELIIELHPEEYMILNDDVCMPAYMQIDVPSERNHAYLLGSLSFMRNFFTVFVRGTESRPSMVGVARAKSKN
A further data set in a line: Cytotoxicity selectivity. The class given is cell-based.
Data set [2] is described as follows: Mouse liver microsome metabolic stability. To be noted: in words. (In general: Liver microsomes are a subcellular fraction often used to study metabolism.)
The test system of data set [3] is Plasmodium falciparum Dd2 (multi-drug resistant). Put plainly: In vitro antimalarial SYBR Green I fluorescence assay. The class given is cell-based.
Where [4] appears, read: Plasmodium falciparum, 3D7, 72 h, read-out: Pf 3D7 IC50.
Where [5] appears, read: Plasmodium falciparum, 3D7, read-out: Pf 3D7 IC50 (side-by-side with CQ).

Read-outs that look alike come from different tables or passages of the source.

`CN(C)c1ccc(CNC(=O)[C@H]2CNC[C@@H]2c2ccc(C(F)(F)F)nc2)cc1` (racemic) [compound 34]: the IC50 in data set [1] (setting [4]) is 230 nM; against Pf plasmepsin II (PM-II), over 10000 nM. Further, the “effect of substitution on Pf 3D7 potency, in words” value (“effect of substitution” for short) in data set [1] is on record as “without loss in potency”.
For the molecule `COc1ccc(CNC(=O)[C@@H]2CNC[C@H]2c2ccc(C(F)(F)F)cc2)cc1` (racemic) [compound 6], in data set [1] (Pf 3D7, amide benzyl ring SAR), the “increase in potency relative to H (13)” value worked out at 10 fold. For the same molecule, the IC50 in data set [1] (setting [4]) is 385 nM. Moreover, the “inhibition of Pf PM-V” value at Pf PM-V is “inactive”. At PM-IX, the “inhibition of PM-IX” value is “inactive”. For the same molecule, the “inhibition of PM-X” value against PM-X was “inactive”. Further, in the data set “Cytotoxicity selectivity”, the selectivity ratio is 100. The “metabolic stability profile in mouse liver microsomes” value in data set [2] is reported as “improved”.
Regarding `CN(C)c1ccc(CNC(=O)[C@H]2CNC[C@@H]2c2ccc(C(F)(F)F)cc2)cc1` [compound 14], the concentration for half-maximal inhibition (IC50) at Pf plasmepsin II (PM-II) was over 10000 nM.
In the case of `CN(C)c1ccc(CNC(=O)[C@H]2CNC[C@@H]2c2cnc(C(F)(F)F)nc2)cc1` [compound 35], the “effect of substitution” value in data set [1] was “modest erosion of potency”.
For `Cc1ccc(CNC(=O)[C@@H]2CNC[C@H]2c2ccc(C(F)(F)F)cc2)cc1` [compound 12], the IC50 at Pf plasmepsin II (PM-II) was over 10000 nM.
On to `C[C@@H](NC(=O)[C@H]1CNC[C@@H]1c1ccc(C(F)(F)F)nc1)c1ccc(N(C)C)cc1` [compound 55, (+)-(3R,4S)-N-[(1R)-1-[4-(dimethylamino)phenyl]ethyl]-4-[6-(trifluoromethyl)pyridin-3-yl]pyrrolidine-3-carboxamide], for which the “reduction / loss in potency relative to parent analog” value in data set [1] (Pf 3D7, SAR comparison stated in text) was over 30 fold.
`C[C@@H]1CC[C@H]2[C@@H](C)C(=O)O[C@@H]3O[C@@]4(C)CC[C@@H]1[C@]32OO4` [artemesinin, reference compound]: the IC50 in data set [1] (setting [4]) worked out at 33 ± 0.6 nM.
Molecule `CCN(CC)c1ccc(CNC(=O)[C@@H]2CNC[C@H]2c2ccc(C(F)(F)F)cc2)cc1` [compound 16] came in with a half-inhibitory concentration (IC50) at Pf plasmepsin II (PM-II) of over 10000 nM.
On the same count and under the same terms, the figure for `CN(C)c1ccc(CNC(=O)[C@@H]2CNC[C@H]2c2ccc(C(F)(F)F)c(Cl)c2)cc1` [compound 26] is over 10000 nM.
In the case of `CCN(CC)CCCC(C)Nc1ccnc2cc(Cl)ccc12` (stereo not drawn) [chloroquine, reference compound], the half-inhibitory concentration (IC50) came out at 54 ± 0.4 nM in data set [1] (setting [4]); 38 ± 2 nM in data set [1] (setting [5]); 196 ± 14 nM in data set [3] (DD2, read-out: Pf Dd2 IC50 (side-by-side with CQ)).
For the molecule `CN(C)c1ccc(CNC(=O)[C@@H]2CNC[C@H]2c2ccc(Oc3ccccc3)cc2)cc1` [compound 30], the “effect of substitution” value in data set [1] is “tolerated”. The IC50 against Pf plasmepsin II (PM-II) was over 10000 nM.
`CN(C)c1ccc(CNC(=O)[C@@H]2CNC[C@H]2c2ccc(C(F)(F)F)c(F)c2)cc1` [compound 24] registered an IC50 against Pf plasmepsin II (PM-II) of over 10000 nM.
Regarding `C[C@H](NC(=O)[C@H]1CNC[C@@H]1c1ccc(C(F)(F)F)cc1)c1ccc(N(C)C)cc1` [54b, (+)-(3R,4S)-N-[(1S)-1-[4-(dimethylamino)phenyl]ethyl]-4-[4-(trifluoromethyl)phenyl]pyrrolidine-3-carboxamide], the IC50 was determined as 51 nM in data set [1] (setting [4]) and 46 ± 6 nM in data set [1] (setting [5]). For the same molecule, the EC50 was 46 nM in data set [1] (Plasmodium falciparum, 3D7, read-out: EC50 against drug sensitive Plasmodium falciparum 3D7) and 21 nM in data set [3] (DD2, read-out: EC50 against drug resistant Dd2 strain).
